# Source: ChEMBL document CHEMBL5291721, “A preclinical secondary pharmacology resource illuminates target-adverse drug reaction associations of marketed drugs” (Nat Commun, 2023)
# What was measured:
# [1] = molecular target: T1, Sodium-dependent dopamine transporter (Homo sapiens, UniProt Q01959)
# [2] = molecular target: T2, Sodium-dependent noradrenaline transporter (Homo sapiens, UniProt P23975)
# D(1A) dopamine receptor [3] = molecular target: T3, D(1A) dopamine receptor (Homo sapiens, UniProt P21728)
# [4] = molecular target: T1, Sodium-dependent dopamine transporter; remark: listed apart in the source
# [5] = molecular target: T4, 5-hydroxytryptamine receptor 2B (Homo sapiens, UniProt P41595); format: functional, cell-based
# Mu-type opioid receptor [6] = molecular target: T5, Mu-type opioid receptor (Homo sapiens, UniProt P35372)
# [7] = molecular target: T6, Gamma-aminobutyric acid receptor subunit alpha-1 (Rattus norvegicus, UniProt P62813); format: functional
# [8] = molecular target: Neuronal acetylcholine receptor subunit alpha-4 (Homo sapiens, UniProt P43681)
# [9] = molecular target: T6, Gamma-aminobutyric acid receptor subunit alpha-1
# Mu-type opioid receptor [10] = molecular target: T5, Mu-type opioid receptor; remark: listed apart in the source
# D(1A) dopamine receptor [11] = molecular target: T3, D(1A) dopamine receptor; remark: listed apart in the source
# [12] = molecular target: T4, 5-hydroxytryptamine receptor 2B; format: functional, cell-based; remark: listed apart in the source
# [13] = molecular target: Kappa-type opioid receptor (Homo sapiens, UniProt P41145)
# D(3) dopamine receptor [14] = molecular target: T7, D(3) dopamine receptor (Homo sapiens, UniProt P35462)
# [15] = molecular target: T4, 5-hydroxytryptamine receptor 2B; format: functional, cell-based; remark: listed apart in the source
# [16] = molecular target: T8, 5-hydroxytryptamine receptor 1A (Homo sapiens, UniProt P08908); format: functional, cell-based
# T8 sequence (P08908 whole entry): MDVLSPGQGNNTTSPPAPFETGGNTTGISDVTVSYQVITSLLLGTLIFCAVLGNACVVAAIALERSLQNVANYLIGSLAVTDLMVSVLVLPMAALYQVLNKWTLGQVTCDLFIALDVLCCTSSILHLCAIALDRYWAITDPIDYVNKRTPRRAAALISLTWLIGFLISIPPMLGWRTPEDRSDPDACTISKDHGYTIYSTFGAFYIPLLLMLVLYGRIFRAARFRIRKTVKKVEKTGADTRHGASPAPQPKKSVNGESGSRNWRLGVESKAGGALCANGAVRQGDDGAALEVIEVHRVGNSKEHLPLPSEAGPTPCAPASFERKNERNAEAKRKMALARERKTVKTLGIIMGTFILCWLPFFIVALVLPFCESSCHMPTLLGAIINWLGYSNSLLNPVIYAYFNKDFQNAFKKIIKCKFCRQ
# [17] = molecular target: Voltage-dependent N-type calcium channel subunit alpha-1B (Rattus norvegicus, UniProt Q02294); format: functional
# D(1A) dopamine receptor [18] = molecular target: T3, D(1A) dopamine receptor; format: functional, cell-based
# Cannabinoid receptor 1 [19] = molecular target: T9, Cannabinoid receptor 1 (Homo sapiens, UniProt P21554); format: functional, cell-based
# D(3) dopamine receptor [20] = molecular target: T7, D(3) dopamine receptor; remark: listed apart in the source
# [21] = molecular target: T10, 5-hydroxytryptamine receptor 2C (Homo sapiens, UniProt P28335)
# T10 sequence (P28335 whole entry): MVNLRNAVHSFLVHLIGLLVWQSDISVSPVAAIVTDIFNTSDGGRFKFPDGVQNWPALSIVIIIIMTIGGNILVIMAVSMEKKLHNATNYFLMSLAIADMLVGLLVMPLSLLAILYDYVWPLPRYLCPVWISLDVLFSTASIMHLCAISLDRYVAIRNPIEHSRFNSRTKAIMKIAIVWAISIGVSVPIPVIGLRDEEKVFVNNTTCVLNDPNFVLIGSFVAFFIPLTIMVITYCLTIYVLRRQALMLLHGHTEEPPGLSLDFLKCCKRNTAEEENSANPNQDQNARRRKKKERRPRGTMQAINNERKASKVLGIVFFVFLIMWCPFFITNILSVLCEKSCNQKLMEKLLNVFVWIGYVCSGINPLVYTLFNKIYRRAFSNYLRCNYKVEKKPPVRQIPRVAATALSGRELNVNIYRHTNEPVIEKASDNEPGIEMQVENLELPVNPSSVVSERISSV
# [22] = molecular target: T6, Gamma-aminobutyric acid receptor subunit alpha-1; remark: listed apart in the source
# Cannabinoid receptor 1 [23] = molecular target: T9, Cannabinoid receptor 1
# D(1A) dopamine receptor [24] = molecular target: T3, D(1A) dopamine receptor; remark: listed apart in the source
# D(4) dopamine receptor = molecular target: T11, D(4) dopamine receptor (Homo sapiens, UniProt P21917)
# T11 sequence (P21917 whole entry): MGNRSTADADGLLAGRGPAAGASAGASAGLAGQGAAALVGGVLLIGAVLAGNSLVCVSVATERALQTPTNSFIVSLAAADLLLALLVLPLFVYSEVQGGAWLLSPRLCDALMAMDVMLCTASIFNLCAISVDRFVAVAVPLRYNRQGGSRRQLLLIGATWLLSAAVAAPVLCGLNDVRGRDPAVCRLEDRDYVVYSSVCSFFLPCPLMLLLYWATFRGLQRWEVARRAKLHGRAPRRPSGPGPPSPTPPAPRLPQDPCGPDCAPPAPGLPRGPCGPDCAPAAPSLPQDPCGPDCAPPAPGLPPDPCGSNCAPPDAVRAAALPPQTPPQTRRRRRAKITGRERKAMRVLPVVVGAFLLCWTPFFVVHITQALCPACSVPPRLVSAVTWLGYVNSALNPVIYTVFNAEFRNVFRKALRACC
# [25] = molecular target: T4, 5-hydroxytryptamine receptor 2B
# [26] = molecular target: T2, Sodium-dependent noradrenaline transporter; remark: listed apart in the source
# [27] = molecular target: T8, 5-hydroxytryptamine receptor 1A
# [28] = molecular target: T12, 5-hydroxytryptamine receptor 3A (Homo sapiens, UniProt P46098); format: functional
# T12 sequence (P46098 whole entry): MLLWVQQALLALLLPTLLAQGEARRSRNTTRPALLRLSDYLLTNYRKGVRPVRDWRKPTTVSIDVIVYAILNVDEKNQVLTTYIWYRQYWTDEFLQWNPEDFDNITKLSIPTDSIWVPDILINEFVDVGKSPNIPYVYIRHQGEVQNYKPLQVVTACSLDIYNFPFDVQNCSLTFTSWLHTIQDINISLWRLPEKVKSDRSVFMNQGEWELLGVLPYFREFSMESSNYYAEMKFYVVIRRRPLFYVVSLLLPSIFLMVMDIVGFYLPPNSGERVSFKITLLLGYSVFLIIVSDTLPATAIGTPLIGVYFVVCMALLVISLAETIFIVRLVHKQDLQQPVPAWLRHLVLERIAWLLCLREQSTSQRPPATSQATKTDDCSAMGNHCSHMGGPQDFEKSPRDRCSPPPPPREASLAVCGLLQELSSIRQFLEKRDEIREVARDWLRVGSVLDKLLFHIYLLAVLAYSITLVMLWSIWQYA
# [29] = molecular target: Glutamate receptor ionotropic, NMDA 1 (Rattus norvegicus, UniProt P35439)
# [30] = molecular target: T8, 5-hydroxytryptamine receptor 1A; format: functional, cell-based; remark: listed apart in the source
# [31] = molecular target: Delta-type opioid receptor (Homo sapiens, UniProt P41143)
# [32] = molecular target: T8, 5-hydroxytryptamine receptor 1A; remark: listed apart in the source
# Note: assay procedure not described here.
# T3 sequence (P21728 whole entry): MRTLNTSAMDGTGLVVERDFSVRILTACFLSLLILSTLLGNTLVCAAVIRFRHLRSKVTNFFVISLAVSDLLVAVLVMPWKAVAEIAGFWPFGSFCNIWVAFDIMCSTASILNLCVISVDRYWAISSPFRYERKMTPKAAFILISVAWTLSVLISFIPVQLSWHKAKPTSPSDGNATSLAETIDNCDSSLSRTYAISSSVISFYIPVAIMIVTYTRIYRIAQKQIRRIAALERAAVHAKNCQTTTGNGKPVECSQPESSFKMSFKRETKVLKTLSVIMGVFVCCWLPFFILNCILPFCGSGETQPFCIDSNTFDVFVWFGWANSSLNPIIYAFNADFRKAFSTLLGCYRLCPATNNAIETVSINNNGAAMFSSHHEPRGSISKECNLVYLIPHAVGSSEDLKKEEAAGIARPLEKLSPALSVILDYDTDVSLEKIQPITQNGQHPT
# T6 sequence (P62813 whole entry): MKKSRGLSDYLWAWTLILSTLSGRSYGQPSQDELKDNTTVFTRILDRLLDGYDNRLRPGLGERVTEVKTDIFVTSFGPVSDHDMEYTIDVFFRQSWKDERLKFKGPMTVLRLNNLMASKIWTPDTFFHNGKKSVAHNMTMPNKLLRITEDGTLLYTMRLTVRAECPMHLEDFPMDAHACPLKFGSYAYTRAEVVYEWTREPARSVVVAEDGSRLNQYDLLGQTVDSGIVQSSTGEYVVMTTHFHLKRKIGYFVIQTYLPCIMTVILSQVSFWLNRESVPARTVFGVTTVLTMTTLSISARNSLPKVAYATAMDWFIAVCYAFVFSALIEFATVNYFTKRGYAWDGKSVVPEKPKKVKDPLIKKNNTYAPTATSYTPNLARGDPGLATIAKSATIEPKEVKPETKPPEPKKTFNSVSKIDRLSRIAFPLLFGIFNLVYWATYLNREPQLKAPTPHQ
# T4 sequence (P41595 whole entry): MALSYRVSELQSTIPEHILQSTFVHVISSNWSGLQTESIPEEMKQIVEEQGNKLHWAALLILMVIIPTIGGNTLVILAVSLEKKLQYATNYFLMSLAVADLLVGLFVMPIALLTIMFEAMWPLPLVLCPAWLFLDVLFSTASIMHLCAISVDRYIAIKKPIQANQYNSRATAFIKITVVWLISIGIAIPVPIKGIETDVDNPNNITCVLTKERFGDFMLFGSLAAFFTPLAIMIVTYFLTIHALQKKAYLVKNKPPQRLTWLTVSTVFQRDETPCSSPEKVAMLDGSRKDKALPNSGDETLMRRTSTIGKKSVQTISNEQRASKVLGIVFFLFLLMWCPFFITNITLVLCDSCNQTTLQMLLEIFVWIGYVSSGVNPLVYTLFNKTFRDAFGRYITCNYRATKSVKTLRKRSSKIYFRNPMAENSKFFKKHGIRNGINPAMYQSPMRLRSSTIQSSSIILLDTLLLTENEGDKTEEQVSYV
# T1 sequence (Q01959 whole entry): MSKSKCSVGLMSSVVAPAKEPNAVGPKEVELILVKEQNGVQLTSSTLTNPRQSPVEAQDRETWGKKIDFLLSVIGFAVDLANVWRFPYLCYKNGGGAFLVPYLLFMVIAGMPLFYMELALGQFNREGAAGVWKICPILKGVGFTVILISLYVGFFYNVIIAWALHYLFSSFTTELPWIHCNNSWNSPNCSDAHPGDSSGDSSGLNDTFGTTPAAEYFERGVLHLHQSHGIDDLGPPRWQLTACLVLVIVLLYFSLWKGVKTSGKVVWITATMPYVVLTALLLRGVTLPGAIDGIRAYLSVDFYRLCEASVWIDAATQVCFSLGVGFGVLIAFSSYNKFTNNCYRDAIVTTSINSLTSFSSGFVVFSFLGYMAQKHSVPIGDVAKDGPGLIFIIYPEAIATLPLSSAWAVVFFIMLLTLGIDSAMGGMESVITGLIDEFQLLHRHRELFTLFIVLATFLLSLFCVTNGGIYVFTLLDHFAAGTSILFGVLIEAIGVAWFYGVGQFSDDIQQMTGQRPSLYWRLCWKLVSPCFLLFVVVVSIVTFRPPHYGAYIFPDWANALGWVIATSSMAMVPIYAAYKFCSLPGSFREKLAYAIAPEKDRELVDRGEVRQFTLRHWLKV
# T5 sequence (P35372 whole entry): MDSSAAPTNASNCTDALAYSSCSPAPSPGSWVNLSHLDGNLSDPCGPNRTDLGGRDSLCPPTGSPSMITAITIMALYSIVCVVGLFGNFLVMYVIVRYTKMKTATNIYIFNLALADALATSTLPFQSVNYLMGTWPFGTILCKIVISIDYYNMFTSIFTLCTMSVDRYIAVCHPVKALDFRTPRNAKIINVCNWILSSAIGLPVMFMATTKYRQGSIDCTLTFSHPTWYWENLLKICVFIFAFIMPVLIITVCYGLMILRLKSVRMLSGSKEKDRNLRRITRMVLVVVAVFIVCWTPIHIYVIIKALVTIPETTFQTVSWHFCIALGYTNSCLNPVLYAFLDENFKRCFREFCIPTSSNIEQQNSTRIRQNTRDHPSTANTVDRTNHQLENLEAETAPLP
# T2 sequence (P23975 whole entry): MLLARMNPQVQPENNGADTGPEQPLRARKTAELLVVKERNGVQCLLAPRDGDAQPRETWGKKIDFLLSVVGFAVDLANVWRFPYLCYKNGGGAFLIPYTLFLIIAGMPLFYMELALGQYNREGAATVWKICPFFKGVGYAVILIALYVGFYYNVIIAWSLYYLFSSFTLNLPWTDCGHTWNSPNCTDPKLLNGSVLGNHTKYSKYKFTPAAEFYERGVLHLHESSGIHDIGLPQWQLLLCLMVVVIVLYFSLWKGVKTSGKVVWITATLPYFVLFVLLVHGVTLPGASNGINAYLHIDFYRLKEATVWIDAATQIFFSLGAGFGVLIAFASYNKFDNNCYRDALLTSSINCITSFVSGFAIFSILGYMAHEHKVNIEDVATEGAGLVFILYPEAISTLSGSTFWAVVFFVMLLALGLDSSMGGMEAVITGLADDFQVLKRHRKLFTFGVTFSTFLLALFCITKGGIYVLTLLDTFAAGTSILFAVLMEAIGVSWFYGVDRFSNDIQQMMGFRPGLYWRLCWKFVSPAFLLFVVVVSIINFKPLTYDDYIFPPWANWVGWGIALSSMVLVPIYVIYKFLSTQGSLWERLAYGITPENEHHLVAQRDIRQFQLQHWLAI
# T9 sequence (P21554 whole entry): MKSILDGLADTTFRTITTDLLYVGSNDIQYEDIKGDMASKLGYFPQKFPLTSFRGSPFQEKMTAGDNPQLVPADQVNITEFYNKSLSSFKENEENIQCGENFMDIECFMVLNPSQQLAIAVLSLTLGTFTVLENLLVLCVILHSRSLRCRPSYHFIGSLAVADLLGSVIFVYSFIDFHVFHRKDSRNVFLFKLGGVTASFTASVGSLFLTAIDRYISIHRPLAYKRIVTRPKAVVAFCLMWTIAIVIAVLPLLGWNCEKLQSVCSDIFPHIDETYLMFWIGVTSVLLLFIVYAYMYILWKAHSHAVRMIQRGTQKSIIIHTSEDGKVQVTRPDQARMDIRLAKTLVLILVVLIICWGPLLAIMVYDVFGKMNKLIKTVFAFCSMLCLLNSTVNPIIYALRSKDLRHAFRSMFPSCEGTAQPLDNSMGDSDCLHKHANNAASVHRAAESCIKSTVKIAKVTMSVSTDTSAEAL
# T7 sequence (P35462 whole entry): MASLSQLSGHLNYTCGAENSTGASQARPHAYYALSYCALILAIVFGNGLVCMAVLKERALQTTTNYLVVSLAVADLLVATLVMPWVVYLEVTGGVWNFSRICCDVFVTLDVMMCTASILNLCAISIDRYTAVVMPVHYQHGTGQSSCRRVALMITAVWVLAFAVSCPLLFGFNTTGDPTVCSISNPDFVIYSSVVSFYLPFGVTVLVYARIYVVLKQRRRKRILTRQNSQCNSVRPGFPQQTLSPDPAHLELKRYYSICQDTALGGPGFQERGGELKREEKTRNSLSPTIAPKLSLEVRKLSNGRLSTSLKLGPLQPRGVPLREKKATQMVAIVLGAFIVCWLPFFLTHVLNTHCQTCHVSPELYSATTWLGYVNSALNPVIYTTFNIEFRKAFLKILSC
# Sequence of Kappa-type opioid receptor (P41145 whole entry): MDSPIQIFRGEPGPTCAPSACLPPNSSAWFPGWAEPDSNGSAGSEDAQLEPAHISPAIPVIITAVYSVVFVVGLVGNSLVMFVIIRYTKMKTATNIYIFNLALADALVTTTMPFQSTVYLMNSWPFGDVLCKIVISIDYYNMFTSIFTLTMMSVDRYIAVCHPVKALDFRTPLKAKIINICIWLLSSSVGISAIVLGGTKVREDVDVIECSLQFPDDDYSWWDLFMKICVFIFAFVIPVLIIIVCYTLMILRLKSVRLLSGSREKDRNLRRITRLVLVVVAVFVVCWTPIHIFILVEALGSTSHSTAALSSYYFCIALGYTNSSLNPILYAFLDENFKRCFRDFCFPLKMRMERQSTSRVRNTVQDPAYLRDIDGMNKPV
# Sequence of Neuronal acetylcholine receptor subunit alpha-4 (P43681 whole entry): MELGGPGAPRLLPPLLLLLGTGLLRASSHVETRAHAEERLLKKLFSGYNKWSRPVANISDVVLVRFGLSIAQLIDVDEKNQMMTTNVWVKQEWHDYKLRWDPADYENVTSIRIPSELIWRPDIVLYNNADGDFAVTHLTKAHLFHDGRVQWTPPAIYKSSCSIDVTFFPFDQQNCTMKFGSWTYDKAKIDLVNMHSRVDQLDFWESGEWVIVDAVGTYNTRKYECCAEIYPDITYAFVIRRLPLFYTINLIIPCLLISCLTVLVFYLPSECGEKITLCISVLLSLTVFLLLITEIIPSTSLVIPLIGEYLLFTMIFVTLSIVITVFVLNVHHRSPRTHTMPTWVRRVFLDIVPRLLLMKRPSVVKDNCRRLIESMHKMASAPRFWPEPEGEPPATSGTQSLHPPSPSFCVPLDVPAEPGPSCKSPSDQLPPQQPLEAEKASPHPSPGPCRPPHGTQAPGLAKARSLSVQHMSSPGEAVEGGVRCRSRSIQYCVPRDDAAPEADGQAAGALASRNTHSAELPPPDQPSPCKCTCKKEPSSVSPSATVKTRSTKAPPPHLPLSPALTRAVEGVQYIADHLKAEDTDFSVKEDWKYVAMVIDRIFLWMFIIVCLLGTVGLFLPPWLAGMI
compound,measurement,setting,value
COC(=O)C1=C(C)NC(C)=C(C(=O)OC)C1c1ccccc1[N+](=O)[O-] [NIFEDIPINE],AC50,[1],> 30 µM
same,AC50,[2],> 30 µM
same,AC50,D(1A) dopamine receptor [3],26 µM
same,AC50,[4],> 10 µM
same,AC50,[5],6.8 µM
same,AC50,Mu-type opioid receptor [6],11 µM
same,AC50,[7],> 10 µM
same,AC50,[8],> 10 µM
same,AC50,[9],> 10 µM
same,AC50,Mu-type opioid receptor [10],> 30 µM
same,AC50,D(1A) dopamine receptor [11],> 10 µM
same,AC50,[12],> 10 µM
same,AC50,[13],> 10 µM
same,AC50,D(3) dopamine receptor [14],> 30 µM
same,AC50,[15],> 30 µM
same,AC50,[16],> 10 µM
same,AC50,[17],> 10 µM
same,AC50,D(1A) dopamine receptor [18],> 10 µM
same,AC50,Cannabinoid receptor 1 [19],> 30 µM
same,AC50,D(3) dopamine receptor [20],> 10 µM
same,AC50,[21],> 30 µM
same,AC50,[22],> 30 µM
same,AC50,Cannabinoid receptor 1 [23],> 10 µM
same,AC50,D(1A) dopamine receptor [24],> 30 µM
same,AC50,D(4) dopamine receptor,> 10 µM
same,AC50,[25],> 10 µM
same,AC50,[26],> 10 µM
same,AC50,[27],> 10 µM
same,AC50,[28],> 30 µM
same,AC50,[29],> 10 µM
same,AC50,[30],> 10 µM
same,AC50,[31],> 30 µM
same,AC50,[32],> 30 µM
